Data from patent publication US6689938B2, “Method for treatment of insulin resistance in obesity and diabetes” (Oklajoma Medical Research Foundation, priority 2000, dated 2004).

What was measured:
Format in all cases: in vivo, mouse
[1] = test system: POMC null mutants and wildtype littermates; test: Corticosterone supplementation in drinking water, blood glucose levels; conditions: 25 μg per mL in drinking water for 3½ months, starting at 3 months of age; POMC null mutants and wildtype females
Description: (§1) In the experiment illustrated in FIG. 7, POMC null mutants and wildtype littermate females, 5 per group, received drinking water containing corticosterone (25 μg per mL) or nothing in addition for 3½ months, starting at 3 months of age. Blood glucose levels were determined before and after corticosterone supplementation.

[2] = test system: POMC null mutants and wildtype mice; test: Insulin tolerance test after corticosterone supplementation
Description: In this experiment, illustrated in FIG. 6, food was taken away in the morning from 5 month old females, 5 per group. 6 hrs later, the mice were injected with insulin (Human insulin, 1 Unit/kg, i.p.). Blood was collected at times indicated and glucose measured using a Glucometer.
as §1

[3] = test system: POMC mutants and wildtype mice; test: Insulin tolerance test after MSH or ACTH treatment; conditions: for glucoregulatory response / ability of POMC null mice: peripheral administration to POMC null mice
Description: In this experiment, illustrated in FIG. 9, glucose was measured in 4-6 month old female mice, wildtypes and POMC mutants, 5 mice per group. Mice were fasted for 5 hours. Each genotype (wildtype +/+and mutant −/−) received either: (1) 0.1 mL saline i.p.; (2) 0.1 mL saline containing 1 μg α-MSH i.p.; or (3) 0.1 mL saline containing 1 μg ACTH s.c.
One hour later, human insulin (0.5 mIU/g body weight) was injected intraperitoneally in all mice, and glucose was measured at the indicated intervals in blood collected from a tail nick.

| Molecule | induction of diabetes (blood glucose levels before and after supplementation) [1] | counterregulatory response in insulin tolerance test ([2]; POMC mutants versus wildtype mice) | blood glucose levels in insulin tolerance test ([2]; both wildtypes and mutants, versus untreated group) | blood glucose levels in insulin tolerance test, treated POMC mutants versus wildtype littermates ([3]; 1 μg α-MSH i.p. one hour before human insulin 0.5 mIU/g i.p., 4-6 month old females fasted 5 hours) | insulin resistance in the POMC null mouse ([3]; administration to the POMC null mouse) | glucoregulatory response / ability of POMC null mice [3] | glucoregulatory response / ability of POMC null mice ([3]; listed as melanocortin stimulating hormone (MSH)) |
| --- | --- | --- | --- | --- | --- | --- | --- |
| C[C@]12C[C@H](O)[C@H]3[C@@H](CCC4=CC(=O)CC[C@@]43C)[C@@H]1CC[C@@H]2C(=O)CO [corticosterone] | does not induce diabetes | lag behind the wildtype mice in their counterregulatory response in the same manner as without corticosterone supplementation | do not fall to as low a level as in the untreated group | – | – | – | – |
| Ac-Ser-Tyr-Ser-Met-Glu-His-Phe-Arg-Trp-Gly-Lys-Pro-Val-NH2 [α-MSH] | – | – | – | not significantly different | induces insulin-resistance | restored the glucoregulatory ability | nearly normalizes the glucoregulatory response |
